In patent KR20200058863A, “루테인 장용성 고체분산체를 유효성분으로 함유하는 위산보호용 조성물 및 이를 포함하는 경구용 제제” (중앙대학교 산학협력단, priority 2018, dated 2020):
Where two headings read alike, the source gives them in different places.

Experiments:
[1] = PXRD crystallinity of lutein and solid dispersions; type: physicochemical; conditions: 2θ 5° to 50°, room temperature
[2] = physchem; conditions: ph 1.2 solution
[3] = intestinal fluid, pH 6.8; spectra over 24 h
[4] = In vitro dissolution in artificial gastric/intestinal fluid and successive pH (USP 29 apparatus 2); type: physicochemical; conditions: artificial gastric fluid pH 1.2, 120 min
[5] = physchem; conditions: artificial gastric fluid, pH 1.2
[6] = physchem; conditions: artificial gastric fluid, pH 1.2; remark: listed apart in the source
[7] = intestinal condition pH 6.8, 37 ± 0.5 ℃, 100 rpm

crystallinity (PXRD peaks) [1]: 다양한 특유의 피크를 갖는 고도의 결정구조
remaining at 12 h [2]: 14.7%
change of lutein absorbance spectrum [3]: 유의한 변화가 확인되지 않았다
acid resistance ([4]; 37 ± 0.5 ℃, 100 rpm): 산저항성을 나타내었으며
lutein detected in dissolution medium ([4]; low solubility): 검출되지 않았다
degraded at 2 h [5]: 70%
degraded at 24 h [6]: ~50%
change of lutein [7]: 루테인 변화가 나타나지 않았다
lutein content (pH 1.2, 0 h): 10.31 ± 0.29 mg
lutein ratio (pH 1.2, 0 h): 100%
lutein content (pH 1.2, after 12 h): 1.51 ± 0.03 mg
SMILES: CC1=C[C@H](O)CC(C)(C)[C@H]1/C=C/C(C)=C/C=C/C(C)=C/C=C/C=C(C)/C=C/C=C(C)/C=C/C1=C(C)C[C@@H](O)CC1(C)C [루테인]
